Experimental data: US20100112055A1, “MICROPOROUS FILM AND PREPARATION AND USE THEREOF” (NATIONAL TAIWAN UNIVERSITY, priority 2008, published 2010)

Experiment: Pharmacokinetic study in vivo, plasma theophylline by HPLC
Details: male, rabbit, rabbits, intravenous injection, n = 5
Procedure: The male rabbits were used as an animal model in this invention. Each rabbit was intravenous injection of theophylline solution, orally administered an uncoated theophylline core tablet (TH-Lac) and a coated micropore-controlled release tablet (TH-Lac-A50), respectively. Blood samples were collected at specific time points, and the plasma concentrations of theophylline were analyzed by high-performance liquid chromatography equipped with a reverse-phase column (Hypersil BDS C18, 250×4.6 mm, 5 μm) and a UV spectrophotometer at a wavelength of 272 nm (Shimadzu SPD-6AV). The mobile phase constituted by acetonitrile and 0.2 M acetate buffer solution (pH 4.5) in the ratio of 6.5:93.5% v/v was applied at a flow rate of 1.0 mL/min.

## Cn1c(=O)c2[nH]cnc2n(C)c1=O [IV-TH, theophylline]
  AUC(0-inf): 117 ± 25.9 µg·h/mL
  Cmax: 21200 ± 1990 ng/mL
  MRT: 7.7 ± 1.16 h
  Tmax: 0.25 h
